Data from patent US5705649A, “Protein staining compositions and methods” (Promega Corporation, priority 1995, dated 1998).

Experiments:
[1] = test system: Promega Mid-Range Molecular Weight Standards; assay: Detection of proteins during SDS-PAGE with Acid Blue 25 dyes; settings: 0.01% (w/v) in cathode buffer (Example 23)
From the text: Ten μl of each solution was loaded into lanes of the three gels, and they were placed into three separate Bio-Rad Miniprotean II gel apparati (Bio-Rad, Richmond, Calif., USA) with the cathode solutions containing 1.0, 0.75, or 0.5% (v/v) of the derivatized Acid Blue 25 preparation (unpurified). The samples were then fractionated within the gels by application of 15 mA of current per gel.

[2] = test system: Promega Mid-Range Molecular Weight Markers; assay: Sensitive post-electrophoretic detection of protein using purified NBODY dye
Method: A 12% SDS-PAGE gel was prepared as described in Example 27 and was loaded with dilute Promega Mid-Range Molecular Weight Markers (diluted and heated as in Example 27) to produce lanes which contained 100, 80, 60, 40, 20, 10 and 5 ng of protein per band. The gel was run in a BioRad Miniprotean II gel system at 50V for 1.5 hr. then 125V until the tracking dye reached the bottom of the gel. After the dye reached the bottom of the gel, the gel was removed from the apparatus and placed in 50 ml of 5% acetic acid, 20% ethanol.
The NBODY dye prepared as in Example 40 with n-dodecyl amine was purified by applying 2 ml of the NBODY-C12 reaction mixture from Example 40 3cm from one edge of a 25×25cm silica gel plate (Sigma Chemical Co., St. Louis, […]., USA). The plate was developed using a 6:1 ratio of tolulene:ethyl acetate. […]
After 30 minutes in the 5% acetic acid, 20 % ethanol, the gel was removed from that solution and replaced with a solution containing the purified NBODY-C12 stain with the following composition: one ml of purified NBODY-C12 solution was placed in 50 ml of 35% ethanol, 5% acetic acid. […] After one hour in the water solution, the gel was scanned on a Molecular Dynamics Fluoroimager (Molecular Dynamics, Sunnyvale, Calif.), which excites fluorescence with laser light of 483 nm wavelength.

[3] = test system: Promega Mid-Range Molecular Weight Standards; assay: Post-electrophoretic detection of protein using NBODY derivatives; settings: crude dye solution in 5% acetic acid, 20% ethanol, one hour
Method: Promega Mid-Range Molecular Weight Standards were diluted and heated as described in Example 27 to produce solutions containing 125, 25, 5 and 1 ng of protein per band in 10 microliters of solution. A 10% Tris Glycine, precast polyacrylamid gel from Novex Corp. (San Diego, Calif., USA, Cat. No. EC 6075.) was loaded with 10 microliters of the just described, diluted molecular weight standard solutions in lanes so that two lanes, each with the same diluted standard solution, were separated by a blank lane. The gel was developed using conditions recommended by the manufacturer and following development, the gel was cut in the blank lane. The segments were placed in 50 ml of 5% acetic acid, 20% ethanol. Six hundred microliters of the NBODY-C12 reaction mixture from Example 40 was added to the solution with one of the segments of a pair (of lanes with the same protein molecular weight standard solution) and three hundred microliters of the NBODY-C16 reaction mixture from Example 40 was added to the solution with the other segment of the same pair. After one hour of incubation, the gel segments were photographed on a transilluminator as described in example 27. Protein bands were detected in the lanes containing the 125 and 25 ng of protein per band using this method and the crude dye solutions from Example 40.

SMILES	visibility of protein bands during electrophoresis [1]	visibility of protein bands ([2]; lanes of 100 to 5 ng per band)	detection limit ([2]; purified dye in 35% ethanol, 5% acetic acid, one hour, water one hour, Fluoroimager 483 nm)	lowest protein per band detected [3] [ng]
Nc1c(S(=O)(=O)O)cc(Nc2ccccc2)c2c1C(=O)c1ccccc1C2=O [unmodified Acid Blue 25]	no protein bands were seen			
CCCCCCCCCCCCNC(=O)CCCCCNc1ccc([N+](=O)[O-])c2nonc12 [NBODY-C12]		Protein bands were seen for all of the protein species in the lanes containing all protein concentrations	lower than 5 ng	25
